Results taken from ChEMBL document CHEMBL2074540, “Induction of multidrug resistance protein 3 (mrp3) in vivo is independent of constitutive androstane receptor” (Drug Metab Dispos, 2003).

Legend:
[1] = target: ATP-binding cassette sub-family C member 3 (Mus musculus, UniProt B2RX12); assay: TP_TRANSPORTER: Branched DNA Assay in vivo, liver of mouse; type: functional, organism-based
[2] = target: ATP-binding cassette sub-family C member 3 (Rattus norvegicus, UniProt O88563); assay: TP_TRANSPORTER: Branched DNA Assay in vivo, liver of WKY rat; type: functional, organism-based
Sequence of ATP-binding cassette sub-family C member 3 (Rattus norvegicus, UniProt O88563) (O88563 whole entry): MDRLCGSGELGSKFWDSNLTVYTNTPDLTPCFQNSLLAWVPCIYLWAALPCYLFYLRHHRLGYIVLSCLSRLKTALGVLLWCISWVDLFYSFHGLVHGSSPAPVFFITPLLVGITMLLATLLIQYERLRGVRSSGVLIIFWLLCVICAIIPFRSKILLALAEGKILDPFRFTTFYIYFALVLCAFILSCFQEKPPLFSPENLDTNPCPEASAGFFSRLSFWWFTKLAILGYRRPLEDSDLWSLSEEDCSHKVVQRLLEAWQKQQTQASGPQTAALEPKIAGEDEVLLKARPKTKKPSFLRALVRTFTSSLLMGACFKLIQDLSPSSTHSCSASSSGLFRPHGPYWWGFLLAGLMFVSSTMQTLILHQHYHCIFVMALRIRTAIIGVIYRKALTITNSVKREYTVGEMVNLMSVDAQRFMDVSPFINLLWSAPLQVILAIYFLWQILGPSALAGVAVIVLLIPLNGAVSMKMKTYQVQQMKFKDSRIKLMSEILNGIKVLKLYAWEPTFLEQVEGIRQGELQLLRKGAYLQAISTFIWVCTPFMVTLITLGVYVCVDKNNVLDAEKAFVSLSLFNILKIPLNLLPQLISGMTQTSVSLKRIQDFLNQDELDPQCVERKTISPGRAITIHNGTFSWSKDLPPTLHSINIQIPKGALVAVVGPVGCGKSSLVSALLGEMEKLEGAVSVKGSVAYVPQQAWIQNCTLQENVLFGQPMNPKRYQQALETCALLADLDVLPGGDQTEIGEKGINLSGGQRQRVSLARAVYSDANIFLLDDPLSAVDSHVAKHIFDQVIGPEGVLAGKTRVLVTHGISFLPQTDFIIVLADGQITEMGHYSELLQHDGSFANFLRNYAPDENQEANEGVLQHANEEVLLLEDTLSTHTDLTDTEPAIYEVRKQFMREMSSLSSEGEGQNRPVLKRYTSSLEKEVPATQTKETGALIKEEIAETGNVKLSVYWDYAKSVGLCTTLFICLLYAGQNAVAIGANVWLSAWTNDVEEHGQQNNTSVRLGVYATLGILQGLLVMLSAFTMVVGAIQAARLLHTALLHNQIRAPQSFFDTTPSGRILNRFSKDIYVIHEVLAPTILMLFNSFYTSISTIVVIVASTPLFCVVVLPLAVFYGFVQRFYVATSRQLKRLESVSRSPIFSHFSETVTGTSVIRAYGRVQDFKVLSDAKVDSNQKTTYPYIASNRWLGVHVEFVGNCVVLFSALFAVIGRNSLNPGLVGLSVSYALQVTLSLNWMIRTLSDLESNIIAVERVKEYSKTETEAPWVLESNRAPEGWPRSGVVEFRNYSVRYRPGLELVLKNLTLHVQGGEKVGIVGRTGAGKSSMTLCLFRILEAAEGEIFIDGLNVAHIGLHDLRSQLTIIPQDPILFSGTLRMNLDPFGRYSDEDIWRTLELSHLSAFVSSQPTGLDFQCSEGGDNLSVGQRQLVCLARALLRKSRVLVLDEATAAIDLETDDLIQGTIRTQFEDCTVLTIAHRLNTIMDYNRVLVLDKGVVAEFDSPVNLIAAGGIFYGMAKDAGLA

Sequence of ATP-binding cassette sub-family C member 3 (Mus musculus, UniProt B2RX12) (B2RX12 whole entry): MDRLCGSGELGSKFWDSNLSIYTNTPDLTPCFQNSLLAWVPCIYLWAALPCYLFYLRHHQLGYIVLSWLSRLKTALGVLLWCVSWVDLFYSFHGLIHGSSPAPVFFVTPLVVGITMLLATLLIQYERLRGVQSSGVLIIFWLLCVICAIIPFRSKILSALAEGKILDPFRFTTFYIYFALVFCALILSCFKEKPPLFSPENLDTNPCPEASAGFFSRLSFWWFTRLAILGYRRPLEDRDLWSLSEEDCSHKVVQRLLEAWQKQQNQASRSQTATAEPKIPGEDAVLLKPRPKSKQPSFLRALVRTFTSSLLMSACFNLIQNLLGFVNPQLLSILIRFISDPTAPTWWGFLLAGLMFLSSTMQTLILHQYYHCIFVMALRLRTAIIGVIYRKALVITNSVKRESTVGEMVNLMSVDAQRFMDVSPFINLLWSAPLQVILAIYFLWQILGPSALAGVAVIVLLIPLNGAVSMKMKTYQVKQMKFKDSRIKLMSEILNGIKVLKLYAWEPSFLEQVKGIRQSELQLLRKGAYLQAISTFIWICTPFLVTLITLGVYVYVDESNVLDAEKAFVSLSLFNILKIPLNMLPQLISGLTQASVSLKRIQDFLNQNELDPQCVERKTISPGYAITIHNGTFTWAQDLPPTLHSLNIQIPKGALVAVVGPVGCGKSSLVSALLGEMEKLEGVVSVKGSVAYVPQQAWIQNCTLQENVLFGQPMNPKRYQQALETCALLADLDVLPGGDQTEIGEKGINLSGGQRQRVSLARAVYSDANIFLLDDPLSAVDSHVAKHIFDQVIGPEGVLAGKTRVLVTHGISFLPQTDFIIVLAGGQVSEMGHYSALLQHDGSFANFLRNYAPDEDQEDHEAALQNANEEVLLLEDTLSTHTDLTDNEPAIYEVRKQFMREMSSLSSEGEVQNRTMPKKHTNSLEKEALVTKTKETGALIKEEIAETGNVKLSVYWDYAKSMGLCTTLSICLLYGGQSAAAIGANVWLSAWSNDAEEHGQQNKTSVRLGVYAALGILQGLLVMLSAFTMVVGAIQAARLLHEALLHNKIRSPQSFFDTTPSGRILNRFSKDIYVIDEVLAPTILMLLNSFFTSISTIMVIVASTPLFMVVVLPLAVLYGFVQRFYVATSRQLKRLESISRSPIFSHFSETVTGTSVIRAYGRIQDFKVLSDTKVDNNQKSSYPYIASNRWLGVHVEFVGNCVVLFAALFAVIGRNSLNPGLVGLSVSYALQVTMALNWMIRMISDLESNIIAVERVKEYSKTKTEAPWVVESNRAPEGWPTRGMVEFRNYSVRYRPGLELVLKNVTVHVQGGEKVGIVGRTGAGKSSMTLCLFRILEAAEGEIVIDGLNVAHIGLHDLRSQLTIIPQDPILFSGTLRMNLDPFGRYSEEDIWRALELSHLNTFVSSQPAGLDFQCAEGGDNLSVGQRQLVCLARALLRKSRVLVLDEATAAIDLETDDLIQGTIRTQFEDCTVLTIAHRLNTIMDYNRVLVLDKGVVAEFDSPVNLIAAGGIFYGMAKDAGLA

| Structure (SMILES) | Activity [1] | Activity [2] |
| --- | --- | --- |
| c1ccc([C@H]2O[C@@H]2c2ccccc2)cc1 (relative stereo) | inducer [] | inducer [] |
| C=CCSCC=C [DIALLYL SULFIDE] | inducer [] | inducer [] |
| Cc1c(-c2cnccn2)ssc1=S [OLTIPRAZ] | inducer [] | inducer [] |
| CCC1(c2ccccc2)C(=O)NC(=O)NC1=O [PHENOBARBITAL] | inducer [] | inducer [] |
